The values below come from paper PMC9820411, “Late-Stage Functionalization through Click Chemistry Provides GLUT5-Targeting Glycoconjugate as a Potential PET Imaging Probe” (International Journal of Molecular Sciences, 2022).

The target in the assay is T1, GLUT5 (Homo sapiens, UniProt P22732).
T1 construct: gene SLC2A5
T1 sequence (P22732 1-501): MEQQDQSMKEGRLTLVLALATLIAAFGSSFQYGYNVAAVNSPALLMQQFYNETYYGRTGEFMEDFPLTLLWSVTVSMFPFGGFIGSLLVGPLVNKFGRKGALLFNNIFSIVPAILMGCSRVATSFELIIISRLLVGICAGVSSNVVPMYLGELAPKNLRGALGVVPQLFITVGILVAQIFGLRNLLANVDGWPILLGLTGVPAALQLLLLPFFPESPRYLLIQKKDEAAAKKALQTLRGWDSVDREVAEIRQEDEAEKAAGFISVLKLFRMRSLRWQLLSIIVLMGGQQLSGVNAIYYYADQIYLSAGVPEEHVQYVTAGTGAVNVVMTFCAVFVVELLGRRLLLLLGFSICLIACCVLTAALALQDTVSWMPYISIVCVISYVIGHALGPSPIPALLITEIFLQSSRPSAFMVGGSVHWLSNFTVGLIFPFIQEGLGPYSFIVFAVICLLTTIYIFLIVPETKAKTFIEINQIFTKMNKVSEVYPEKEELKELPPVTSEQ
The assay is described as follows: competition with ManCou-F uptake in MCF7 cells. Type of assay: cell-based.

Structures are written as SMILES.

As to `OC[C@H]1OC(O)(CO)[C@@H](O)[C@@H]1O` (stereo partly shown) [fructose], the IC50 (as a rule, the concentration that gives 50% inhibition) was around 28 mM.
